A word on the inhibition: it is the drop in the measured response relative to a control, in per cent. In general, IC50 refers to the concentration needed to halve the response being measured.

One assay relates to PC3 cells. The experiment in a line: PC3 growth inhibition (Cell-titer glo, 72 hours). The format is cell-based. Conditions: Homo sapiens, PC-3; compound concentration 1.667 μM; PC3 cells, 72 hours, Cell-titer glo; read-out: Percent Inhibition (PC3 growth inhibition). The method, boiled down:
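PC3 cells in RPMI1640 seeded overnight at 37 °C, 5% CO2, then exposed to compound diluted in AIM serum-free medium for 72 h. Viability by CellTiter-Glo luminescence vs DMSO controls; single-concentration % remaining viability (1 μM or 1.667 μM), or GI50/LD50 from curves.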

The target in a further assay is hNAMPT protein (Homo sapiens (Human), UniProt P43490). As to the kind of experiment: NAMPT enzyme assay (TR-FRET/HTRF, BodiPY ligand, anti 6His-Tb). The format is binding. To be noted: for IC50: read-out: IC50; for inhibition at 1 µM: read-out: Percent Inhibition. The method, boiled down: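 TR-FRET binding assay in which His-tagged human NAMPT with anti-6His-Tb is displaced by compound from a BodiPY ligand, incubated 1 h at rt in the dark. Excitation was at 320 nm, with the 520/486 nm emission ratio read. IC50 was fitted from inhibition relative to DMSO controls.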
Sequence of hNAMPT protein (P43490 whole entry): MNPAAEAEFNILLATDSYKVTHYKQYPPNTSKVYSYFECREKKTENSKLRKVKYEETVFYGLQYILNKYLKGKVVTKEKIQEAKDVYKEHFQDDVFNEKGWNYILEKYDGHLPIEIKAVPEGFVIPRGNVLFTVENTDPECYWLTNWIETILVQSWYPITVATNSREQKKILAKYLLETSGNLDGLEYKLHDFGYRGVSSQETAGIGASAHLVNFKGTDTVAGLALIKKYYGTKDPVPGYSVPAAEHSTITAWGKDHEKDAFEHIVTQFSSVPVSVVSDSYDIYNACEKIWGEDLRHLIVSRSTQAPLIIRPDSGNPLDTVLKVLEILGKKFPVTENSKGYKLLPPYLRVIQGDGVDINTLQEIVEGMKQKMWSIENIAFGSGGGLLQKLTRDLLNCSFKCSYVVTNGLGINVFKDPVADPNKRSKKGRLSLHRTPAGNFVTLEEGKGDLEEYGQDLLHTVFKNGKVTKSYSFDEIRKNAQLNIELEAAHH
On the technique in general: TR-FRET usually uses a lanthanide donor and a delayed reading to cut background.

Like-named read-outs stand apart in the source and are kept apart here.

Turning to `O=C(NCCCc1ncc[nH]1)c1ccc2nc(OCC3CC4(COC4)C3)c(-c3ccc(F)cc3)nc2c1` [Compound I-378, 3-(4-fluorophenyl)-N-[3-(1H-imidazol-2-yl)propyl]-2-(2-oxaspiro[3.3]hept-6-ylmethoxy)quinoxaline-6-carboxamide], the inhibition at 1.667 µM in the assay on PC3 cells was determined as 2%. In addition, on hNAMPT protein (NAMPT IC50 range class), the IC50 is below 100 nM. The inhibition at 1 µM at hNAMPT protein (compound concentration 1 μM) is above 99%.
As for `O=C(NCCCc1ncc[nH]1)c1ccc2nc(OCC3CCOC3)c(-c3ccc(F)cc3)nc2c1` (stereo not drawn) [Compound I-379, 3-(4-fluorophenyl)-N-[3-(1H-imidazol-2-yl)propyl]-2-(tetrahydrofuran-3-ylmethoxy)quinoxaline-6-carboxamide], the inhibition at 1.667 µM with PC3 cells came to 2%. The IC50 on hNAMPT protein (NAMPT IC50 range class) was below 100 nM. Moreover, at hNAMPT protein (compound concentration 1 μM), the inhibition at 1 µM was 100%.
In the same order, the values of `CC(C)Oc1nc2ccc(C(=O)NCCCc3cn[nH]c3)cc2nc1-c1ccc(F)cc1` [Compound I-380, 3-(4-Fluorophenyl)-2-isopropoxy-N-[3-(1H-pyrazol-4-yl)propyl]quinoxaline-6-carboxamide] are 2%, 500 to 1000 nM and 55%.
In the same order, the values of `O=C(NCCCc1ncc[nH]1)c1ccc2nc(-c3ccc(F)cc3)c(-c3cc(C(F)(F)F)ccc3Cl)nc2c1` [Compound I-381, 3-[2-chloro-5-(trifluoromethyl)phenyl]-2-(4-fluorophenyl)-N-[3-(1H-imidazol-2-yl)propyl]quinoxaline-6-carboxamide] are 2%, below 100 nM and 96%.
Turning to `CCc1ccc(-c2nc3cc(C(=O)NCCCc4ncc[nH]4)ccc3nc2-c2ccc(F)cc2)cc1` [Compound I-382, 3-(4-ethylphenyl)-2-(4-fluorophenyl)-N-[3-(1H-imidazol-2-yl)propyl]quinoxaline-6-carboxamide], the inhibition at 1.667 µM in the assay on PC3 cells was found to be 3%. The IC50 at hNAMPT protein (NAMPT IC50 range class) lay within 500 to 1000 nM. At hNAMPT protein (compound concentration 1 μM), the inhibition at 1 µM came to 55%.
On the same counts, the results for `C[C@@H]1CN(c2nc3ccc(C(=O)NCCCc4ncc[nH]4)cc3nc2-c2ccc(F)cc2)C[C@H](C)O1` [Compound I-383, 2-[cis-2,6-dimethylmorpholin-4-yl]-3-(4-fluorophenyl)-N-[3-(1H-imidazol-2-yl)propyl]quinoxaline-6-carboxamide] are 2%, below 100 nM and 99%.
On the same counts, the results for `CS(=O)(=O)c1cccc(-c2nc3cc(C(=O)NCCCc4ncc[nH]4)ccc3nc2-c2ccc(F)cc2)c1` [Compound I-384, 2-(4-fluorophenyl)-N-[3-(1H-imidazol-2-yl)propyl]-3-[3-(methylsulfonyl)phenyl]quinoxaline-6-carboxamide] are 2%, 100 to 500 nM and 84%.
On the same counts, the results for `CC(C)Oc1nc2ccc(C(=O)NCCCc3ncc[nH]3)cc2nc1-c1cccs1` [Compound I-385, N-[3-(1H-imidazol-2-yl)propyl]-2-isopropoxy-3-(2-thienyl)quinoxaline-6-carboxamide] are 2%, below 100 nM and above 99%.
For `Cn1ccc2cc(-c3nc4cc(C(=O)NCCCc5ncc[nH]5)ccc4nc3-c3ccc(F)cc3)ccc21` [Compound I-386, 2-(4-fluorophenyl)-N-[3-(1H-imidazol-2-yl)propyl]-3-(1-methyl-1H-indol-5-yl)quinoxaline-6-carboxamide], the inhibition at 1.667 µM in the assay with PC3 cells came out at 2%. For the same molecule, at hNAMPT protein (NAMPT IC50 range class), the IC50 fell in the range of 100 to 500 nM. The inhibition at 1 µM on hNAMPT protein (compound concentration 1 μM) is 90%.
In the same order, the values of `O=C(NCCCc1nnc[nH]1)c1ccc2nc(-c3ccc(F)cc3)c(-c3ccc(F)cc3)nc2c1` [Compound I-387, 2,3-bis(4-fluorophenyl)-N-[3-(4H-1,2,4-triazol-3-yl)propyl]quinoxaline-6-carboxamide] are 5%, 500 to 1000 nM and 61%.
On the same counts, the results for `N#Cc1cc(-c2nc3cc(C(=O)NCCCc4ncc[nH]4)ccc3nc2-c2ccc(F)cc2)ccc1F` [Compound I-388, 3-(3-cyano-4-fluorophenyl)-2-(4-fluorophenyl)-N-[3-(1H-imidazol-2-yl)propyl]quinoxaline-6-carboxamide] are 3%, 100 to 500 nM and 81%.
In the same order, the values of `O=C(NCCCc1ncc[nH]1)c1ccc2nc(-n3ccc4cnccc43)c(-c3ccc(F)cc3)nc2c1` [Compound I-389, 3-(4-fluorophenyl)-N-[3-(1H-imidazol-2-yl)propyl]-2-(1H-pyrrolo[3,2-c]pyridin-1-yl)quinoxaline-6-carboxamide] are 2%, below 100 nM and 93%.
On to `O=C(NCCCc1ncc[nH]1)c1ccc2nc(OCCc3cnoc3)c(-c3ccc(F)cc3)nc2c1` [Compound I-390, 3-(4-fluorophenyl)-N-[3-(1H-imidazol-2-yl)propyl]-2-[2-(isoxazol-4-yl)ethoxy]quinoxaline-6-carboxamide], for which, in the assay on PC3 cells, the inhibition at 1.667 µM turned out to be 2%. Further, the IC50 on hNAMPT protein (NAMPT IC50 range class) is below 100 nM. Also, at hNAMPT protein (compound concentration 1 μM), the inhibition at 1 µM was 99%.
On the same counts, the results for `COc1nccc(-c2nc3cc(C(=O)NCCCc4ncc[nH]4)ccc3nc2-c2ccc(F)cc2)c1F` [Compound I-391, 3-(3-fluoro-2-methoxypyridin-4-yl)-2-(4-fluorophenyl)-N-[3-(1H-imidazol-2-yl)propyl]quinoxaline-6-carboxamide] are 3%, 100 to 500 nM and 83%.
`COc1cc(-c2nc3cc(C(=O)NCCCc4ncc[nH]4)ccc3nc2OC(C)C)c(F)cn1` [Compound I-392, 3-(5-fluoro-2-methoxypyridin-4-yl)-N-[3-(1H-imidazol-2-yl)propyl]-2-isopropoxyquinoxaline-6-carboxamide]: in the assay with PC3 cells, the inhibition at 1.667 µM came to 1%. Besides, the IC50 on hNAMPT protein (NAMPT IC50 range class) was in the range of 100 to 500 nM. At hNAMPT protein (compound concentration 1 μM), the inhibition at 1 µM was determined as 91%.
In the same order, the values of `N#Cc1ccc(Cl)c(-c2nc3cc(C(=O)NCCCc4ncc[nH]4)ccc3nc2-c2ccc(F)cc2)c1` [Compound I-393, 3-(2-chloro-5-cyanophenyl)-2-(4-fluorophenyl)-N-[3-(1H-imidazol-2-yl)propyl]quinoxaline-6-carboxamide] are 2%, below 100 nM and 98%.
In the same order, the values of `Cc1cncc(-c2nc3cc(C(=O)NCCCc4ncc[nH]4)ccc3nc2-c2ccc(F)cc2)c1` [Compound I-394, 2-(4-fluorophenyl)-N-[3-(1H-imidazol-2-yl)propyl]-3-(5-methylpyridin-3-yl)quinoxaline-6-carboxamide] are 3%, 100 to 500 nM and 74%.
For the molecule `Cc1cccc(-c2nc3cc(C(=O)NCCCc4ncc[nH]4)ccc3nc2-c2ccc(F)cc2)c1` [Compound I-395, 2-(4-fluorophenyl)-N-[3-(1H-imidazol-2-yl)propyl]-3-(3-methylphenyl)quinoxaline-6-carboxamide], the inhibition at 1.667 µM with PC3 cells turned out to be 2%. The inhibition at 1 µM at hNAMPT protein (NAMPT inhibition at compound concentration 1 μM) is 83%. Besides, the IC50 on hNAMPT protein (NAMPT inhibition, IC50 range class) was in the range of 100 to 500 nM.

(Values after patent US10144742B2 (Millennium Pharmaceuticals, Inc., priority 2014, dated 2018).)
